Laboratory results from US12605455B2, “CAR peptide for improved coronavirus survival” (Vascular Biosciences, priority 2020, dated 2026).
Like-named read-outs stand apart in the source and are kept apart here. Bridge positions count the residues as written; N and C are the ends. Peptide text beside a SMILES is read from it.

Columns and labels:
LPS model of sepsis = assay: LPS model of sepsis, survival with sivelestat with or without CAR; assay type: in vivo
Excerpt: (§1) Thus, CAR could potentially adjuvant efficacy of other drugs against viral sepsis, including CAR in combination with sivelstat, as shown at lung (FIG. 9), liver (FIG. 10) and kidney (FIG. 11) samples.

[1] = test system: endothelium of lung, liver and kidney; assay: Scanning electron micrographs of lung, liver and kidney, sivelestat with or without CAR in septic animals; assay type: in vivo
Excerpt: Scanning electron micrographs of lung tissue from control, sivelestat alone, and CAR+sivelestat treated animals. The pulmonary vasculature is shown in the enlargement.
Scanning electron micrographs of liver tissue from control, sivelestat alone, and CAR+sivelestat treated animals. The fenestrated sinusoidal endothelium with clusters of fenestrations, or ‘sieve plates,’ are visible in the control liver vasculature.
Scanning electron micrographs of kidney tissue from control, sivelestat alone, and CAR+sivelestat treated animals. In the enlargement shown of the […] vasculature, the fenestrated glomerular endothelium surrounded by podocyte foot processes (red arrow). […] This is presumably due to activation of neutrophil elastase which leads to proteolytic degradation of critical extracellular matrix proteins. […] The activity of sivelestat's anti-elastase appears to be efficiently boosted by CAR's selective homing to the injured endothelial glycocalyx in the kidney.
as §1

[2] = CAR 3 mg/kg i.v. for 14 days
hypertensive lungs = conditions: isolated perfused lung experiments (Toba et al. 2014); cited from earlier work
Irwin test in rats = assay type: in vivo
[3] = Safety pharmacology and TID 10-day rising-dose and multiple-dose tolerance study of CAR in rats; assay type: in vivo
[4] = Two-month repeat administration of CAR to pigs; assay type: in vivo; conditions: IV 3 mg/kg
LPS-induced endotoxemia = assay: Survival after LPS-endotoxemia, hydrocortisone with or without CAR; assay type: in vivo, mice; conditions: for survival rate 48 hours after LPS: C57BL/6 male mice, LPS 20 mg/kg IP
Method: 10-week-old C57BL/6 male mice were given an intraperitoneal (IP) injection of Escherichia coli 055:B5 LPS 20 mg/kg. Mice were injected i.p. with 20 mg/kg lipopolysaccharide (LPS). Five different treatments were initiated: saline only group (Untreated, n=31); CAR peptide-alone administration 20 mg/kg ([…]) (CAR alone, n=20); hydrocortisone 0.2 mg/kg or 10 mg/kg Low-HCT or High-HCT, n=20, 28 respectively); and CAR 20 mg/kg co-administered with hydrocortisone 0.2 mg/kg (Low HCT+CAR, n=20). Hydrocortisone and/or CAR peptide were injected intraperitoneally at 3, 12 and 24 hours after LPS administration.

SARS-CoV2 [5] = assay type: in vivo, K18-hACE2 transgenic mice; conditions: HCT 0.2 mg/kg/dose iv every 12 hours: free, liposome encapsulated or CAR-liposome
CLP sepsis = assay: Cecal ligation and puncture (2CLP) rat model of sepsis, hydrocortisone with or without CAR; assay type: in vivo, rats
Method: At 40 hours, 4 of the 5 rats in the HCT+CAR group survived while none of the rats in either the HCT group nor the sepsis group survived for 40 hours (n=5 in each group) (Log-rank P=0.008).
8-10 week-old male Sprague Dawley rats were exposed to CLP. Rats were randomized (n=5/group) to saline, hydrocortisone (0.2 mg/kg IV), or CAR (3 mg/kg IV)+HCT. Treatments were initiated 12 hours after surgery, and given every 12 hours afterwards until death, for a maximum of 5 days. Rats were treated with fluid resuscitation but not with antibiotics in this model. Survival was highest in the CAR+HCT group (FIG. 6) (Log-rank P=0.008) and the median Ang2/Ang1 ratio was lower in CAR+HCT than the hydrocortisone group (0.60 vs 1.69, p=0.06).

SARS-CoV2 [6] = assay type: in vivo, K18-hACE2 transgenic mice; conditions: HCT 0.2 mg/kg/dose via IT installation every 24 hours: free, liposome encapsulated or CAR-liposome encapsulated
SARS-CoV2 [7] = assay type: in vivo, K18-hACE2 transgenic mice; conditions: hydrocortisone 0.2 mg/kg ip every 6 hours, alone or with CAR 8 mg/kg ip
[8] = test system: endothelium and endothelial glycocalyx of kidney, lung and liver; assay: Ultrastructural analysis (scanning electron microscopy) of endothelium and endothelial glycocalyx after LPS; assay type: in vivo; conditions: mice 48 hours after LPS; hydrocortisone 0.2 mg/kg with or without CAR
Method: Capillaries of the kidney are fenestrated capillaries which have small holes at endothelial cells. The destruction of this structure was 48 hours after LPS injection. Then, the endothelial wall became edematous and there was deposited fibrin on it. Capillaries of the lung are continuous type of capillaries. Although the vascular endothelium of the lung is thinner at the edges of the nucleus, edema occurred and vascular endothelial structure was impaired 48 hours after LPS injection. Capillaries of the liver are sinusoids which have a lot of large […] gap in normal capillaries. 48 hours after LPS administration, these structures have already broken the edematous of the vascular endothelium and deposited fibrin.
The endothelial glycocalyx (GCX) of the apical endothelial surface of each organ can by visualized using scanning electron microscopy (SEM) to assess GCX appearance and structure. GCX was largely denuded in the untreated sepsis group but the GXX damage was attenuated when CAR is co-administered with low-HCT.
Mice were sacrificed at 48 hours after LPS administration, and kidney, lung and liver were obtained to create frozen fracture freeze-dried samples to detect endothelial changes with electron microscopy. The specimens were examined under a scanning electron microscope (S-4500, Hitachi). […]

[9] = sivelestat 0.5 mg/kg or sivelestat 0.5 mg/kg + CAR

CC(C)(C)C(=O)Oc1ccc(S(=O)(=O)Nc2ccccc2C(=O)NCC(=O)O)cc1 [Sivelestat, sivelestat]
Survival Rate (%) 12 h (LPS model of sepsis; sivelestat 0.5 mg/kg (n=20) or sivelestat 0.5 mg/kg + CAR (n=18)): 100% | Survival Rate (%) 24 h (LPS model of sepsis; [9]): 85% | Survival Rate (%) 36 h (LPS model of sepsis; [9]): 60% | Survival Rate (%) 48 h (LPS model of sepsis; [9]): 50% | glomerular endothelium fenestrations, SEM kidney images [1]: fenestrations are absent and gross tissue damage is apparent | liver sinusoidal endothelium sieve plates, SEM liver images [1]: not able to prevent defenestration of sieve plates | pulmonary arteriole endothelium, SEM lung images [1]: did not prevent degradation of the continuous pulmonary arteriole endothelium

C[C@@H]1NC(=O)[C@@H](N)CSSC[C@@H](C(=O)O)NC(=O)[C@H](CC(=O)O)NC(=O)[C@H](CCCCN)NC(=O)[C@H](CC(N)=O)NC(=O)[C@H](CCCCN)NC(=O)[C@H](CO)NC(=O)[C@H](CCCNC(=N)N)NC1=O [CAR, CARSKNKDC] (H-CARSKNKDC-OH; disulfide 1-9; N-terminus and C-terminus assumed)
Creatinine ([2]; healthy adult Sprague-Dawley rats): 0.45 ± 0.02 mg/dL | ALP ([2]; healthy rats): 170 ± 18 U/L | AST ([2]; healthy rats): 141 ± 31 U/L | BUN ([2]; healthy rats): 17 ± 1 mg/dL | Glucose ([2]; healthy rats): 213 ± 5 | Hb ([2]; healthy rats): 12.8 ± 0.2 g/dL | Tbili ([2]; healthy rats): 0.10 ± 0.04 mg/dL | Wbc ([2]; healthy rats): 4.0 ± 0.7 ×1000/μL | impact on blood renal function, hepatic function, hematologic tests and glucose hemostasis ([2]; healthy rats): no impact | concentration of the co-administered drug in the diseased lung (hypertensive lungs): doubling | adverse effects on behavior and physiological function (Irwin test in rats): no adverse effects | mortality, clinical observations, hematology, coagulation, clinical chemistry ([3]; TID 10-day rising-dose and multiple-dose, up to highest dose 20 mg/kg IV): no mortality, adverse clinical observations, and no aberrations in hematology, coagulation or clinical chemistry | adverse effects on vital physiological systems (safety pharmacology) ([3]; up to the highest levels of CAR tested): no adverse effects | immunological effects or signs of toxicity [4]: no immunological effects or signs of toxicity

C[C@]12CCC(=O)C=C1CC[C@@H]1[C@@H]2[C@@H](O)C[C@@]2(C)[C@H]1CC[C@]2(O)C(=O)CO [HCT, hydrocortisone]
survival rate 48 hours after LPS (LPS-induced endotoxemia; hydrocortisone 0.2 mg/kg alone or with CAR 20 mg/kg, IP at 3, 12 and 24 hours): 30% | survival rate 48 hours after LPS (LPS-induced endotoxemia; hydrocortisone 10 mg/kg (High-HCT) IP at 3, 12 and 24 hours): 57% | survival difference versus untreated sepsis 48 hours after LPS (LPS-induced endotoxemia; CAR alone 20 mg/kg, hydrocortisone 0.2 mg/kg (Low-HCT)): no significant survival difference | survival at 7 dpi (SARS-CoV2 [5]): some improvements in survival | rats surviving at 40 hours (CLP sepsis; 2CLP rats, n=5 in each group, hydrocortisone 0.2 mg/kg IV with or without CAR 3 mg/kg IV every 12 hours from 12 hours after surgery): none | hyperglycemia (CLP sepsis; CLP rats): hyperglycemia observed | median Ang2/Ang1 ratio (CLP sepsis; CLP rats, p=0.06): 1.69 | survival at 7 dpi (SARS-CoV2 [6]): some improvements in survival | survival at 7 dpi (SARS-CoV2 [7]): some improvements in survival | endothelial ultrastructure of kidney, lung and liver capillaries [8]: no beneficial effect for septic endothelial disorders
